In patent EP0934940A1, “CYTOKINE PRODUCTION INHIBITORS, TRIAZEPINE COMPOUNDS, AND INTERMEDIATES THEREOF” (Japan Tobacco Inc., priority 1996, dated 1997):
Structures can show the parent of a compound that is named as a salt. Where two headings read alike, the source gives them in different places. Blank lines part the entries; values can stand above or below the compound they belong to.

What was measured:
IL-6 [1] = assay: Inhibitory activity on IL-6 production from LPS-stimulated human PBMC (ELISA); type: cell-based; settings: 24 h
Description: (§1) Inhibitory activity on cytokine production from human PBMC (peripheral blood mononuclear cell)
(§2) PBMC fractions were isolated from human blood using a mono-poly resolving medium. The cells (PBMC) were cultured in 5% FCS (fetal calf serum)/RPMI1640 medium. Thereafter, the test compound was added to the final concentration of 0.001-10 µM, and LPS (lipopolysaccharide) was added to the final concentration of 10 µg/ml. After incubatioin for 24 hours, the supernatant was separated and freeze stocked at -80°C.
(§3) On the day of experiment, the supernatant was thawed and the production amount of cytokine was measured by ELISA. IL-6 was assayed using [(h)IL-6] human, ELISA system (Amersham); TNF-α was assayed using [(h)TNF-α] human, ELISA system (Amersham); GM-CSF was assayed using human GM-CSF immunoassay (R&D systems); and IL-8 was assayed using human IL-8 immunoassay (R&D systems). The determination method followed the method of each kit. The results are expressed in IC50.

TNF-α [2] = assay: Inhibitory activity on TNF-α production from LPS-stimulated human PBMC (ELISA); type: cell-based
Description: as §1, §2, §3

IL-6 [3] = assay: Inhibitory activity on in vivo IL-6 production by LPS stimulation; settings: male ICR mice, LPS stimulation i.v., test compound 10 mg/kg p.o. at the same time, blood two hours later, relative to 0.5% CMC-Na group; for inhibition in vivo at 10 mg/kg: Mus musculus, po, 2 h, read-out: Inhibtion (%) of plasma IL-6 production (10 mg/kg, p.o.)
Description: Inhibitory activity on in vivo IL-6 production by LPS stimulation
LFS (0.3 mg/kg) was intravenously administered to male ICR mice (6-week-old) fasted for 24 hours. At the same time, the test compound suspended in 0.5% CMC-Na ( carboxymethylcellulose sodium) was orally administered at the dose of 10 mg/kg.
Two hours later, blood was taken from eyegrounds. The blood was centrifuged, and the plasma fraction was diluted and quantitatively assayed for IL-6 in blood by ELISA (Endogen EM-IL6). The inhibitory percentage of the group administered with the test compound was expressed relative to the amount of IL-6 in blood of the cup administered with 0.5% CMC-Na.

IL-8 = assay: Inhibitory activity on IL-8 production from LPS-stimulated human PBMC (immunoassay); type: cell-based; settings: 24 h, read-out: IL-8 IC50 (µM)
Description: as §1, §2, §3

GM-CSF = assay: Inhibitory activity on GM-CSF production from LPS-stimulated human PBMC (immunoassay); type: cell-based; settings: 24 h, read-out: GM-CSF IC50 (µM)
Description: as §1, §2, §3

TNF-α [4] = assay: Inhibitory activity on in vivo TNF-α production by LPS stimulation; settings: male ICR mice, 30 mg/kg p.o. 30 minutes before LPS 0.3 mg/kg i.v., blood one hour after LPS, relative to 0.5% CMC-Na group
Description: Inhibitory activity on in vivo TNF-α production by LPS stimulation
The test compound suspended in 0.5% CMC-Na (carboxymethylcellulose sodium) was orally administered at the dose of 30 mg/kg to male ICR mice (6-week-old) fasted for 24 hours. At 30 minutes after oral administration, LPS was intravenously administered at the dose of 0.3 mg/kg. At one hour after LSP administration, blood was taken from the heart. The TNF-α in plasma was assayed by ELISA (Genzyme). The suppression of TNF-α production of the group administered with test compounds was calculated by the following formula. Inhibition (%) =[1-(test compound administered group)/(0.5% CMC-Na administered group)]× 100 [formula]

IL-2 = assay: Inhibitory activity on IL-2 production in concanavalin A-stimulated spleen cells; type: cell-based, Balb/c mice; settings: Balb/c mouse spleen cells, 5 µg/ml concanavalin A, 24 hours, EIA
Description: (§4) Inhibitory activity on IL-2 and IFNγ production
(§5) The spleen cells obtained from 9-week-old Balb/c mice (Charles River Japan, Inc.) was suspended in RPMI-1640 medium supplemented with 10% FCS, at 4 × 10^6 cells/ml. The suspended cells were incubated in a 96 well plate (0.25 ml per well) in the presence of 5 µg/ml concanavalin A. The cells were cultured with or without addition of various concentrations of test compounds. After 24 hours' incubation, the culture broth was taken for assay of cytokine and preserved at -80°C. The concentrations of IL-2 and IFNγ in the culture broth were measured using an EIA kit (perSeptive Diagnostic) according to the attached protocol. The results are expressed in IC50.

IFNγ = assay: Inhibitory activity on IFNγ production in concanavalin A-stimulated spleen cells; type: cell-based, Balb/c mice; settings: Balb/c mouse spleen cells, 5 µg/ml concanavalin A, 24 hours, EIA
Description: as §4, §5

Adjuvant arthritis (AIA) = assay: Effects on rat adjuvant arthritis (hind limb edema); type: in vivo; settings: Lewis rats, 10 mg/kg p.o. once a day for 28 days from day 0, hind limb edema at day 28, mean±standard error, **p < 0.01
Description: Effects on rat adjuvant arthritis
Lewis rats (5-week-old, Charles River Japan, Inc.) were used for the test. Adjuvant arthritis (AIA) was induced by injection (0.5 mg) of Mycobacterium butyricum (Difco) suspended in paraffin oil, from the root of the tail at day 0. The volume of the hind limb was measured with time after the injection of adjuvant. The test compound was suspended in 0.5% HPMC (hydroxypropylmethycellulose) and orally administered at the dose of 10 mg/kg once a day for 28 days from day 0. The suppression of edema of hind limb at day 28 was calculated as follows. Suppression (%) = 100 ×((AIA treated group-AIA control group))/((normal control group-AIA control group)) [formula]
The results are shown in mean±standard error and tested by Student-test. The result was significant when p value was less than 0.05.

[5] = human PBMC, LPS 10 µg/ml, incubation 24 hours, supernatant ELISA, read-out: IL-6 IC50
[6] = Homo sapiens, PBMC, 24 h, human PBMC, LPS 10 µg/ml, incubation 24 hours, supernatant ELISA, read-out: TNF-α IC50

- IC50 (IL-6 [1]; [5]): 0.001 µM
- IC50 (TNF-α [2]; [6]): 0.001 µM
Structure (SMILES): Cc1nnc2n1-c1ccccc1C(c1ccc(N)cc1)=NN2Cc1ccc(Cl)cc1 [Synthetic Example 191, 4-[4-(4-Chlorobenzyl)-1-methyl-4H-2,3,4,5,10b-pentaazabenz[e]azulen-6-yl]phenylamine hydrochloride]
- inhibition in vivo at 10 mg/kg (IL-6 [3]): 62%

- IC50 (IL-8): 0.26 µM
- IC50 (GM-CSF): 0.05 µM
- IC50 (IL-2): 0.24 µM
- IC50 (IFNγ): 0.12 µM
Structure (SMILES): Cc1nnc2n1-c1ccccc1C(c1ccc(Cl)cc1)=NN2Cc1cccnc1 [compound 19]
- Inhibition (%) of plasma TNF-α production (30 mg/kg, p.o.) (TNF-α [4]): 51%
- Suppression (%) of edema (Adjuvant arthritis (AIA)): 72.7±3.3** %

- IC50 (TNF-α [2]; [6]): 0.1 µM
- IC50 (TNF-α [2]; human PBMC, LPS 10 µg/ml, incubation 24 hours, supernatant ELISA, read-out: TNF-α IC50): 0.13 µM
Structure (SMILES): Cc1nnc2n1-c1ccccc1C(c1ccc(Cl)cc1)=NN2Cc1ccc[n+]([O-])c1 [Example 1, 3-[6-(4-Chlorophenyl)-1-methyl-4H-2,3,4,5,10b-pentaazabenz[e]azulen-4-ylmethyl]pyridine-1-oxide]
- inhibition in vivo at 10 mg/kg (IL-6 [3]): 73%

Structure (SMILES): CCc1cc2c(s1)-n1c(C)nnc1N(Cc1ccncc1)N=C2c1ccc(Cl)cc1 [Synthetic Example 118, 4-(4-Chlorophenyl)-2-ethyl-9-methyl-6-(pyridin-4-ylmethyl)-6H-5,6,7,8,9a-pentaazathieno[2,3-e]azulene]
- inhibition in vivo at 10 mg/kg (IL-6 [3]): 75%

Structure (SMILES): Cc1nnc2n1-c1ccc([N+](=O)[O-])cc1C(c1ccccc1)=NN2Cc1ccncc1 [Synthetic Example 102, 1-Methyl-8-nitro-6-phenyl-4-(pyridin-4-ymethyl)-4H-2,3,4,5,10b-pentaazabenz[e]azulene]
- Inhibtion (%) of plasma IL-6 production (10 mg/kg, p.o.) (IL-6 [3]): 78%

Structure (SMILES): CCc1cc2c(s1)-n1c(C)nnc1N(Cc1ccncc1)N=C2c1ccccc1 [Synthetic Example 127, 2-Ethyl-9-methyl-4-phenyl-6-(pypidin-4-ylmethyl)-6H-5,6,7,8,9a-pentaazathieno[2,3-e]azulene]
- Inhibtion (%) of plasma IL-6 production (10 mg/kg, p.o.) (IL-6 [3]): 83%

Structure (SMILES): Cc1sc2c(c1C)C(c1ccccc1)=NN(Cc1ccncc1)c1nnc(C)n1-2 [Synthetic Example 125, 2,3,9-Trimethyl-4-phenyl-6-(pyridin-4-ylmethyl)-6H-5,6,7,8,9a-pentaazathieno[2,3-e]azulene]
- inhibition in vivo at 10 mg/kg (IL-6 [3]): 84%

- IC50 (IL-6 [1]; read-out: IL-6 IC50 (µM), human PBMC, LPS 10 µg/ml, incubation 24 hours, supernatant ELISA): 0.3 µM
- IC50 (TNF-α [2]; Homo sapiens, PBMC, 24 h, read-out: TNF-α IC50 (µM), human PBMC, LPS 10 µg/ml, incubation 24 hours, supernatant ELISA): 0.06 µM
Structure (SMILES): Cc1cc2c(s1)-n1c(C)nnc1N(Cc1ccc(-c3nnnn3C)cc1)N=C2c1ccccc1 [Example 16]
- Inhibtion (%) of plasma IL-6 production (10 mg/kg, p.o.) (IL-6 [3]): 84%

Structure (SMILES): Cc1ccc(CN2N=C(c3ccc(Cl)cc3)c3ccccc3-n3c(C)nnc32)cc1 [Synthetic Example 54, 6-(4-Chlorophenyl)-1-methyl-4-(4-methylbenzyl)-4H-2,3,4,5,10b-pentaazabenz[e]azulene]
- inhibition in vivo at 10 mg/kg (IL-6 [3]): 56%

- IC50 (IL-6 [1]; [5]): 0.03 µM
- IC50 (TNF-α [2]; [6]): 0.02 µM
Structure (SMILES): Cc1nnc2n1-c1ccccc1C(c1ccc(N)cc1)=NN2Cc1ccc(C#N)cc1 [Synthetic Example 192, 4-[4-(4-Cyanobenzyl)-1-methyl-4H-2,3,4,5,10b-pentaazabenz[e]azulen-6-yl]phenylamine hydrochloride]
- inhibition in vivo at 10 mg/kg (IL-6 [3]): 67%

Structure (SMILES): Cc1cc2c(s1)-n1c(C)nnc1N(Cc1ccncc1)N=C2c1ccccc1 [Synthetic Example 121, 2,9-Dimethyl-4-phenyl-6-(pyridin-4-ylmethyl)-6H-5,6,7,8,9a-pentaazathieno[2,3-e]azulene]
- inhibition in vivo at 10 mg/kg (IL-6 [3]): 91%

Structure (SMILES): Cc1nnc2n1-c1ccccc1C(c1ccc(Cl)cc1)=NN2Cc1ccncc1 [Synthetic Example 86, 6-(4-Chlorophenyl)-1-methyl-4-(pyridin-4-ylmethyl)-4H-2,3,4,5,10b-pentaazabenz[e]azulene]
- inhibition in vivo at 10 mg/kg (IL-6 [3]): 89%

- IC50 (IL-6 [1]; [5]): < 0.001 µM
- IC50 (TNF-α [2]; [6]): 0.001 µM
Structure (SMILES): Cc1nnc2n1-c1ccccc1C(c1ccc(N)cc1)=NN2Cc1ccc([N+](=O)[O-])cc1 [Synthetic Example 193, 4-[1-Methyl-4-(4-nitrobenzyl)-4H-2,3,4,5,10b-pentaazabenz[e]azulen-6-yl]phenylamine hydrochloride]
- inhibition in vivo at 10 mg/kg (IL-6 [3]): 67%
